Reference: the supplement of paper PMC11451515

Tested on: SEM cells
Assay: cell viability relative to DMSO control; higher = less cytotoxic
Conditions: 48 h
Summary of the method: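 NOMO1 or SEM (500 cells/well) or P12-Ichikawa (1000 cells/well) leukemia cells were adapted for at least four passages in each medium. They were seeded in 1536-well plates (5 μl) and pin-dosed with library compounds in DMSO over an 11-point threefold series, 47 μM to 0.79 nM. CellTiter-Glo One luminescence was read after 48 h at 37°C. Viability is the per-plate percentage relative to DMSO wells, with cell-free wells as background.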

[1] = HPLM + 10% dialyzed FBS, 0.000781 µM
[2] = HPLM + 10% dialyzed FBS, 0.00234 µM
[3] = HPLM + 10% dialyzed FBS, 0.00702 µM
[4] = HPLM + 10% dialyzed FBS, 0.0211 µM
[5] = HPLM + 10% dialyzed FBS, 0.0632 µM
[6] = HPLM + 10% dialyzed FBS, 0.19 µM
[7] = HPLM + 10% dialyzed FBS, 0.569 µM
[8] = HPLM + 10% dialyzed FBS, 1.71 µM
[9] = HPLM + 10% dialyzed FBS, 5.12 µM
[10] = HPLM + 10% dialyzed FBS, 15.4 µM
[11] = HPLM + 10% dialyzed FBS, 46.1 µM
[12] = RPMI 5 mM glucose + 10% FBS, 0.000781 µM
[13] = RPMI 5 mM glucose + 10% FBS, 0.00234 µM
[14] = RPMI 5 mM glucose + 10% FBS, 0.00702 µM
[15] = RPMI 5 mM glucose + 10% FBS, 0.0211 µM
[16] = RPMI 5 mM glucose + 10% FBS, 0.0632 µM
[17] = RPMI 5 mM glucose + 10% FBS, 0.19 µM
[18] = RPMI 5 mM glucose + 10% FBS, 0.569 µM
[19] = RPMI 5 mM glucose + 10% FBS, 1.71 µM
[20] = RPMI 5 mM glucose + 10% FBS, 5.12 µM
[21] = RPMI 5 mM glucose + 10% FBS, 15.4 µM
[22] = RPMI 5 mM glucose + 10% FBS, 46.1 µM
[23] = RPMI 5 mM glucose + 10% dialyzed FBS, 0.000781 µM
[24] = RPMI 5 mM glucose + 10% dialyzed FBS, 0.00234 µM
[25] = RPMI 5 mM glucose + 10% dialyzed FBS, 0.00702 µM
[26] = RPMI 5 mM glucose + 10% dialyzed FBS, 0.0211 µM
[27] = RPMI 5 mM glucose + 10% dialyzed FBS, 0.0632 µM
[28] = RPMI 5 mM glucose + 10% dialyzed FBS, 0.19 µM
[29] = RPMI 5 mM glucose + 10% dialyzed FBS, 0.569 µM
[30] = RPMI 5 mM glucose + 10% dialyzed FBS, 1.71 µM
[31] = RPMI 5 mM glucose + 10% dialyzed FBS, 5.12 µM
[32] = RPMI 5 mM glucose + 10% dialyzed FBS, 15.4 µM
[33] = RPMI 5 mM glucose + 10% dialyzed FBS, 46.1 µM

| SMILES | cell viability [1] | cell viability [2] | cell viability [3] | cell viability [4] | cell viability [5] | cell viability [6] | cell viability [7] | cell viability [8] | cell viability [9] | cell viability [10] | cell viability [11] | cell viability [12] | cell viability [13] | cell viability [14] | cell viability [15] | cell viability [16] | cell viability [17] | cell viability [18] | cell viability [19] | cell viability [20] | cell viability [21] | cell viability [22] | cell viability [23] | cell viability [24] | cell viability [25] | cell viability [26] | cell viability [27] | cell viability [28] | cell viability [29] | cell viability [30] | cell viability [31] | cell viability [32] | cell viability [33] |
| --- | --- | --- | --- | --- | --- | --- | --- | --- | --- | --- | --- | --- | --- | --- | --- | --- | --- | --- | --- | --- | --- | --- | --- | --- | --- | --- | --- | --- | --- | --- | --- | --- | --- |
| Cc1nc(C(=O)NCC(=O)O)c(O)c2ccc(Oc3ccccc3)cc12 | 109% | 109% | 115% | 112% | 116% | 108% | 99.5% | 115% | 92.8% | 102% | 112% | 101% | 108% | 112% | 115% | 103% | 99.4% | 95.7% | 94.8% | 104% | 108% | 99.2% | 113% | 112% | 123% | 116% | 119% | 112% | 113% | 113% | 103% | 115% | 122% |
| CN1C(=O)\C(=C/C2=C1N=C(NC3CCOCC3)N=C2)OC4=C(F)C=C(F)C=C4 | 99.6% | 97.4% | 98.4% | 102% | 99.1% | 90.3% | 93.3% | 92% | 78.9% | 92.7% | 45.6% | 112% | 100% | 125% | 112% | 105% | 112% | 121% | 105% | 97.1% | 115% | 45.6% | 93.3% | 106% | 94.8% | 68.2% | 93.8% | 96.9% | 95.9% | 92% | 96.2% | 88.3% | 42.9% |
| Cc1ccc(C)c(OCCCC(C)(C)C(=O)O)c1 | 83.8% | 81.2% | 99.6% | 85.3% | 97.3% | 94.9% | 92.5% | 92.7% | 92.6% | 98.5% | 96.8% | 97.1% | 87.2% | 87.9% | 97.9% | 94.8% | 103% | 88.7% | 93.9% | 103% | 103% | 92.1% | 91% | 104% | 93.1% | 90.7% | 104% | 91.9% | 102% | 87.1% | 99.5% | 108% | 95.5% |
| CN(C)Cc1cccc(N/C(=C2\C(=O)Nc3cc(C(=O)N(C)C)ccc32)c2ccccc2)c1 | 75.8% | 88.4% | 100% | 98.6% | 112% | 101% | 108% | 97.2% | 90.7% | 55% | 2.72% | 92.4% | 87.5% | 102% | 104% | 109% | 114% | 104% | 102% | 71.2% | 7.07% | 1.12% | 74.2% | 103% | 96.5% | 108% | 103% | 110% | 111% | 115% | 85.6% | 26.6% | 1.38% |
| COc1ccc(CC2SC(=O)NC2=O)cc1C(=O)NCc1ccc(C(F)(F)F)cc1 (stereo not drawn) | 75% | 82.5% | 79% | 82.5% | 73.6% | 92.5% | 76.9% | 83.2% | 95.9% | 79.2% | 40.4% | 90% | 86.8% | 101% | 84.1% | 79.8% | 109% | 96.5% | 106% | 101% | 89.9% | 45.2% | 88% | 88.8% | 88.4% | 87.6% | 77.6% | 98.8% | 93.8% | 97.4% | 38.6% | 83.6% | 56.1% |
| NCC/1=C/NC(=S)N1[C@H]2CCC3=C(F)C=C(F)C=C3C2 | 102% | 107% | 110% | 109% | 93.3% | 102% | 105% | 120% | 99.5% | 94.5% | 43.8% | 118% | 122% | 123% | 119% | 112% | 114% | 120% | 115% | 115% | 108% | 15.4% | – | – | – | – | – | – | – | – | – | – | – |
| CC(=O)OCC(CCn1cnc2cnc(N)nc21)COC(C)=O | 83.4% | 65.5% | 93.6% | 84.8% | 97.3% | 101% | 105% | 101% | 97.7% | 109% | 90.8% | 85.9% | 71.3% | 69.2% | 97.5% | 88.1% | 98.3% | 98.2% | 103% | 97.4% | 103% | 109% | 79.3% | 79.8% | 74.9% | 81.2% | 96% | 95.5% | 103% | 97% | 110% | 97.9% | 95.6% |
| CN(C)c1ccccc1CN1CCCN(Cc2ccccc2N(C)C)C1c1ccncc1 | 81.3% | 91.2% | 86.8% | 23% | 95.2% | 94.9% | 92.5% | 92.6% | 112% | 97.1% | 83.3% | 75.5% | 85.3% | 102% | 15% | 104% | 99.3% | 101% | 93.9% | 93.4% | 5.51% | 49.4% | 73.4% | 79.7% | 95.1% | 18.1% | 117% | 111% | 113% | 98.3% | 98.2% | 87.8% | 80% |
